Data as given in US20160103122A1, “METHOD FOR THE CREATION OF A DATABASE FOR INITIAL ASSESSMENT OF THE EFFECTIVENESS OF ACTIVE AGENTS IN TUMOR THERAPY” (FLACOD GMBH, priority 2013, published 2016).
Values joined by “and” are separate entries in the source; they are usually repeats but may differ in a detail not shown here. Equal values may be shown once. Read-outs that look alike come from different tables or passages of the source.

Key:
[1] = test system: tumor cells of lung cancer (bronchial carcinoma) tissue samples; assay: Chemosensitivity test (IC50 determination) by colony formation in tumor digests ex vivo; assay type: cell-based, human
Experimental: Parts of freshly (under general anesthesia of the patient) taken (here biopsied) lung cancer (bronchial carcinoma) tissue were transported to the laboratory and processed immediately for IC50 determination.
The transport to the laboratory should take place in chilled culture medium. For this purpose in particular HEPES- and NaHCO3-buffered, preferably flavin-free RPMI 1640 culture medium containing 10% fetal bovine serum, 100 IU/mL penicillin G, 100 ug/mL streptomycin, 20 μg/mL Amikacin (as antibiotics) and […] Voriconazole (as an antifungal agent) are suitable.
In the laboratory, this tumor tissue samples were cleaned, weighed, minced and suspended in culture medium.
For this purpose in particular the method according to DE 102012003700 B3 is suitable, wherein about 5.5 mg tumor tissue sample per 1 mL of culture medium are subjected to enzymatic digestion with collagenase, preferably by using Clostridium histolytikum collagenase (Sigma, 230 CDU/mL), in a Petri dish under standard conditions in a gassing incubator (36-37° C., 3.5% CO2 in water vapor saturated air) for 4-5 hours.
Following the collagenase digestion, the digestion product is centrifuged at 50×g, the supernatant is discarded and the pellet is resuspended in 1 mL of fresh culture medium. With this resuspension—hereinafter referred to as “tumor digest”—the chemosensitivity test (IC50 determination) is performed
The thus prepared culture plates were pre-incubated for about 1 hour under standard conditions (i.e.: gassing incubator; 36-37° C.; 3.5% CO2 in water vapor saturated air). Subsequently, 150 μl tumor digest were added to these pre-incubated wells, they were incubated for 72 hours under standard conditions (see above), and then analyzed microscopically.
After the end of incubation, in all tumor digest test preparations the culture medium was removed, and the existing cell colonies were rinsed with phosphate buffered saline (PBS) and drained. Subsequently, the cells were fixed with methanol at minus (−) 25° C. for 5 to 10 minutes and then subjected to Giemsa staining according to Gurr.

[2] = test system: lung adenocarcinoma cell strain A240286S; assay: Verification test of cisplatin concentrations by IC50 determination (cell counting); assay type: cell-based, human; settings: 72 hours; 15 evaluable test preparations; read-out: IC50-values of A240286S cells in the verification tests, average
Experimental: The final concentration gradients were pre-incubated for approximately 30 minutes under standard conditions (see above). […] The culture plate was then incubated, in parallel with the culture plate fitted with the tumor digests, for 72 hours under standard conditions. In the batches of the verification test (with the cells of the lung adenocarcinoma cell strain A240286S) the culture medium was decanted after the end of incubation. The present cellular layers were rinsed with PBS, drained and then removed from the culture vessel with Accutase. The cells were isolated by passing them through a blunt cannula no. 20. Using a cell-counting-and-analyzing apparatus (here the Casy I Cell Analyzer from Roche, Basel), the cell density was determined for each test batch and reduced by the inoculum.

[3] = test system: bronchial carcinoma (lung cancer); assay: Therapy outcome of chemotherapy in patients, assessed by computer tomography after two to three cycles; assay type: in vivo, human; design: key: PR=partial response (i.e. the carcinoma has become detectably smaller); NC=“No Change”=zero growth of the carcinoma; Progress=the carcinoma has continued to grow, no therapeutic success; settings: patient tumor ID 282, NSCLC/St. IV; without platinum derivatives
Source text: The therapy outcome, namely the change or the state of the tumor after two to three cycles of treatment compared to the state before the start of treatment, has been analyzes by computer tomography and classified on the basis of the “standard”—rating scale known and conventional in the art as class I=complete remission (CR), class II=partial remission (PR), class III=zero growth (“no change”, NC) and class IV=Progress (progressive tumor growth). The therapy outcomes achieved are shown in table 1, column 5 and in table 2 in column 3 of each group (1 to 4).

Q: How did the IC50 ([1]; Group 1 (IC50 < 5 μM), 3 tumor samples, read-out: IC50 mean value) turn out when `N.N.[Cl][Pt][Cl]` [cisplatin] was run?
A: 3.64 µM

Q: What about the IC50 ([1]; Group 2 (IC50 ≧ 5 < 8 μM), 7 tumor samples, read-out: IC50 mean value) of the same molecule?
A: 6.73 µM and 6.72 µM

Q: What about the IC50 ([1]; Group 3 (IC50 ≧ 8 bis 25.6 μM), 5 tumor samples, read-out: IC50 mean value) of the same molecule?
A: 21.1 µM

Q: And the IC50 ([1]; tumor sample ID 220, SCLC/St. IV, 72 hours, colonies of epithelial tumor cells, read-out: IC50)?
A: 2.6 µM

Q: What about the IC50 ([1]; tumor sample ID 221, NSCLC/St. IV, 72 hours, read-out: IC50) of the same molecule?
A: 7.77 µM

Q: And the IC50 ([1]; tumor sample ID 228, NSCLC/St. IV, 72 hours, read-out: IC50)?
A: > 26 µM

Q: And the IC50 ([1]; tumor sample ID 233, NSCLC/St. IV, 72 hours, read-out: IC50)?
A: > 26 µM

Q: What about the IC50 ([1]; tumor sample ID 245, NSCLC/St. IV, 72 hours, read-out: IC50) of the same molecule?
A: 7.74 µM

Q: And the IC50 ([1]; tumor sample ID 255, SCLC/St. IV, 72 hours, read-out: IC50)?
A: 4.58 µM

Q: And the IC50 ([1]; tumor sample ID 258, NSCLC/St. IV, 72 hours, read-out: IC50)?
A: 16.7 µM

Q: And the IC50 ([1]; tumor sample ID 260, NSCLC/St. IIIb, 72 hours, read-out: IC50)?
A: 5.61 µM

Q: What about the IC50 ([1]; tumor sample ID 272, SCLC/St. IV, 72 hours, read-out: IC50) of the same molecule?
A: 21 µM

Q: What about the IC50 ([1]; tumor sample ID 275, NSCLC/St. IV, 72 hours, read-out: IC50) of the same molecule?
A: 5.38 µM

Q: What about the IC50 ([1]; tumor sample ID 277, NSCLC/St. IIIa, 72 hours, read-out: IC50) of the same molecule?
A: 7.58 µM

Q: And the IC50 ([1]; tumor sample ID 278, NSCLC/St. IV (adenocarcinoma), 72 hours, read-out: IC50)?
A: 5.25 µM

Q: And the IC50 ([1]; tumor sample ID 279, NSCLC/St. IV (squamous cell carcinoma), 72 hours, read-out: IC50)?
A: 3.73 µM

Q: What about the IC50 ([1]; tumor sample ID 282, NSCLC/St. IV, 72 hours, read-out: IC50) of the same molecule?
A: 14.8 µM

Q: And the IC50 ([1]; tumor sample ID 294, NSCLC/St. IV, 72 hours, read-out: IC50)?
A: 7.7 µM

Q: And the IC50 ([1]; tumor sample ID 297, NSCLC/St. IV, 72 hours, read-out: IC50)?
A: 25.6 µM

Q: What about the IC50 ([1]; tumor sample ID 311, NSCLC/KI. IIIb, 72 hours, read-out: IC50) of the same molecule?
A: 22.1 µM

Q: What about the IC50 ([1]; tumor sample ID 314, NSCLC/KI. IV, 72 hours, read-out: IC50) of the same molecule?
A: 20.5 µM

Q: What about the IC50 [2] of the same molecule?
A: 1200 nM

Q: `Nc1ccn([C@@H]2O[C@H](CO)[C@@H](O)C2(F)F)c(=O)n1` [Gemcitabine] was tested. Which Therapy outcome [3] did it give?
A: Progress
